According to patent US8084398B2, “Benzoylpyrazoles and herbicide” (Bayer Cropscience AG, priority 2006, dated 2011):

Assays:
[1] = system: Setaria viridis; test: Herbicidal efficacy against field weeds, after-emergence stalk and leaf spray treatment (Test Example 2); type: in vivo; details: 2- to 3-leaf stage, 500 g ai/ha, 2 weeks after treatment, 100% = complete death
Protocol: (§1) A suitable formulation of an active compound is obtained as an emulsifiable concentrate by mixing 1 part by weight of the active compound with the stated amounts of the carrier and emulsifier. A prescribed amount of the formulation is diluted with water.
(§2) In a green house, the seeds of field weeds (Amaranthus lividus and Setaria viridis) were inoculated by one species per pot on the surface layer in 16 cm^2 pots filled with field soil (sand loam) and covered with soil. Immediately after the inoculation, the prescribed and diluted solutions of the formulations of respective active compounds prepared according to the above preparation method, were sprayed to the soil. After 2 weeks from the treatment, the herbicidal efficacy of respective active compounds was examined. The evaluation of the herbicidal efficacy was carried out by rating complete death as 100% and as 0% in case of no herbicidal efficacy. In case of showing herbicidal efficacy of 80% or more, such active compounds are evaluated to be practical as herbicides. As typical examples, the study results with Compound Nos. 19 and 96 and those with Comparative compound C-1 are shown in Table 2 below.
Test for herbicidal efficacy against field weeds (After-emerge stalk and leave spray treatment) […]

[2] = system: Setaria viridis; test: Herbicidal efficacy against field weeds, pre-emergence soil spray treatment (Test Example 1); type: in vivo; details: 500 g ai/ha, 2 weeks after treatment, 100% = complete death, 0% = no efficacy
Protocol: (§3) Test for herbicidal efficacy against field weeds (Pre-emergence soil spray treatment) Preparation of formulation of the active compound
(§4) Carrier: DMF 5 parts by weight
(§5) Emulsifier: Benzyloxy polyglycol ether 1 part by weight
as §1, §2

[3] = system: Amaranthus lividus; test: as above; type: in vivo; details: 500 g ai/ha, 2 weeks after treatment, 100% = complete death, 0% = no efficacy
Protocol: as §3, §4, §5, §1, §2

In the case of Cc1nn(C)c(O)c1C(=O)c1ccc(Cl)c(OCCn2cnnn2)c1Cl, the melting point was 63 to 68 °C.

In the case of CS(=O)(=O)c1ccc(C(=O)C2C(=O)CCCC2=O)c(Cl)c1 [C-1], the “herbicidal efficacy, Setaria viridis” value [1] was 40%, the “herbicidal efficacy, Setaria viridis” value [2] was 30% and the “herbicidal efficacy, Amaranthus lividus” value [3] was 70%.
